“Also recorded” adds a separate entry of the source.
Legend:
[1] = test system: MMP-2 gene; test: Real time quantitative PCR of MMP-2 gene expression in Cal-27 cells; assay type: cell-based, Human
Protocol: (§1) Squamous cell carcinoma cells (Cal 27) were purchased from ATCC (CRL-2095) and grown in DMEM with Glutamax, 10% FBS and Penicillin/Streptomycin (1055-024, 15140-122, 10438-018 Gibco-ThermoFischer Scientific) and kept at 37° C. in a humidified air chamber with 5% CO2. Cells were seeded at 3×10^5 cells/flask for the experiments and then grown to confluency. Cells between 3 and 10 passages were used for all experiments. 1,2,3,4,6-Penta-O-galloyl-β-D-glucose (G7548, Sigma-Aldrich) was dissolved in dimethylsulfoxide (DMSO) to obtain a 100 mM stock solution. Subsequent dilutions were done using water, and no flask contained more than 0.5 μL of DMSO (0.01%). […] After washing the tissue culture with 1× phosphate buffered saline (PBS), the cells were lysed, and the RNA purified using a Qiagen RNeasy mini kit using the manufacturer's recommended protocol. All samples were treated with Qiagen DNase. One microgram of RNA was used for reverse transcription and subsequent SYBR® Green real time PCR for the genes of interest as previously described. […] Real time quantitative PCR was performed using an Applied Biosciences StepOne plus instrument and analyzed with StepOne software v2.3. The relative amounts of transcripts from each gene were normalized to reference gene GAPDH and calculated as follows: ΔΔCT=the average ΔCT of […]−the average ΔCT of […], and their fold difference=2−ΔΔCT.

[2] = test system: MMP-2; test: Western blot of MMP-2 protein expression/release in Cal-27 cells treated with PGG; assay type: cell-based; settings: 48 hours, cell media
Protocol: (§2) Squamous cell carcinoma cells (Cal 27) were purchased from ATCC (CRL-2095) and grown in DMEM with Glutamax, 10% FBS and Penicillin/Streptomycin (1055-024, 15140-122, 10438-018 Gibco-ThermoFischer Scientific) and kept at 37° C. in a humidified air chamber with 5% CO2. Cells were seeded at 3×10^5 cells/flask for the experiments and then grown to confluency. Cells between 3 and 10 passages were used for all experiments. 1,2,3,4,6-Penta-O-galloyl-β-D-glucose (G7548, Sigma-Aldrich) was dissolved in dimethylsulfoxide (DMSO) to obtain a 100 mM stock solution. Subsequent dilutions were done using water, and no flask contained more than 0.5 μL of DMSO (0.01%). […] During the protein extraction, media were collected, flash frozen and saved for BCA, Western Blot, and ELISA analysis. […] The proteins were detected and visualized by fluorescence using the LI-COR Odyssey Classic Infrared Imaging system (LI-COR Biosciences). Densitometry analysis of specific bands was performed with the Image Studio software provided by LI-COR Biosciences and the images analyzed using ImageStudio (LI-COR Biosciences). Statistical analysis, including one-way ANOVA with Dunnett's Multiple Comparison Test and Bonferroni, was done using GraphPad Prism 7 (Graph-Pad Software, La Jolla, CA, USA). p values were calculated using the unpaired two-sided Student's t test to compare groups, with statistical significance set at p<0.05.

[3] = test system: Cal 27 cells; test: Transmembrane/Boyden Matrigel invasion assay; assay type: cell-based; settings: for percentage of cells invading the membrane compared with untreated control: 24 hour treatment; for Number of cells invading through Matrigel: 24 hour
Protocol: Squamous cell carcinoma cells (Cal 27) were purchased from ATCC (CRL-2095) and grown in DMEM with Glutamax, 10% FBS and Penicillin/Streptomycin (1055-024, 15140-122, 10438-018 Gibco-ThermoFischer Scientific) and kept at 37° C. in a humidified air chamber with 5% CO2. Cells were seeded at 3×10^5 cells/flask for the experiments and then grown to confluency. Cells between 3 and 10 passages were used for all experiments. Transmembrane/Boyden assay plates with Matrigel were purchased from Corning. DMEM with 10% FBS was used as a chemoattractant in the lower chamber while the cells in the upper chamber were cultured in DMEM with 1% FBS. Wells were prepared with different concentrations of PGG (0-10 μM) and left to incubate for 24 hour. After 24 hour media has discarded and the cells invading the Matrigel were counted according to established protocols.

[4] = test system: MMP-13; test: Western blot of MMP-13 protein expression/release in Cal-27 cells treated with PGG; assay type: cell-based; settings: 48 hours
Protocol: as §2

[5] = test system: MMP-9; test: Western blot of MMP-9 protein expression/secretion in Cal-27 cells treated with PGG; assay type: cell-based; settings: 48 hours
Protocol: as §2

[6] = test system: peripheral blood mononuclear cells (PBMCs); settings: PBMCs treated with PGG; cited from earlier work
[7] = test system: TNF-α; settings: doses as low as 5 μM; cited from earlier work
[8] = test system: Stat3; test: Western blot of Stat3 and pStat3 in Cal-27 cells treated with PGG; assay type: cell-based; settings: 48 hours
Protocol: as §2

[9] = test system: MMP-9 gene; test: Real time quantitative PCR of MMP-9 gene expression in Cal-27 cells; assay type: cell-based, Human; settings: any PGG dose (1, 2.5, 5, 10 and 20 μM), n=4, p>0.05
Protocol: as §1

[10] = test system: MMP-13 gene; test: Real time quantitative PCR of MMP-13 gene expression in Cal-27 cells; assay type: cell-based, Human; settings: 10 or 20 μM PGG, p<0.05 and p<0.001
Protocol: as §1

[11] = test system: toll-like receptors 4 (TLR4); settings: peritoneal and colonic macrophages; cited from earlier work
[12] = test system: MyD88 adaptor protein; settings: peritoneal and colonic macrophages; cited from earlier work
[13] = test system: MMP-14 gene; test: Real time quantitative PCR of MMP-14 gene expression in Cal-27 cells; assay type: cell-based, Human; settings: PGG 10-20 μM
Protocol: as §1

**Q.** Which “MMP-2 gene expression (mRNA)” value ([1]; PGG 5 and 10 μM, GAPDH housekeeping, n=4, p<0.0001) does the source give for `O=C(OC[C@H]1O[C@@H](OC(=O)c2cc(O)c(O)c(O)c2)[C@H](OC(=O)c2cc(O)c(O)c(O)c2)[C@@H](OC(=O)c2cc(O)c(O)c(O)c2)[C@@H]1OC(=O)c1cc(O)c(O)c(O)c1)c1cc(O)c(O)c(O)c1` [PGG, 1,2,3,4,6-penta-O-galloyl-β-D-glucose] here?
**A.** significantly decreased

**Q.** What about the “MMP-2 gene expression (mRNA) vs non-treated” value ([1]; PGG 10-20 μM) of the same molecule?
**A.** reduces

**Q.** And the “MMP-2 expression vs non-treated group” value ([2]; Cal-27 cells, 10 μM PGG, n=4, p<0.01)?
**A.** significantly decreased; also recorded: significantly lower

**Q.** And the “MMP-2 expression vs non-treated group” value ([2]; Cal-27 cells, 1, 2.5 or 5 μM PGG, n=4, p>0.05)?
**A.** not significantly different

**Q.** And the “percentage of cells invading the membrane compared with untreated control” value ([3]; 0.5 μM PGG)?
**A.** 44.5%

**Q.** What about the “percentage of cells invading the membrane compared with untreated control” value ([3]; 10 μM PGG (maximum effect)) of the same molecule?
**A.** 22.3%

**Q.** What about the “Number of cells invading through Matrigel” value ([3]; PGG 0.5 and 1 μM, n=4, p<0.001) of the same molecule?
**A.** significantly lower

**Q.** What about the “Number of cells invading through Matrigel” value ([3]; PGG 2.5, 5 and 10 μM, n=4, p<0.0001) of the same molecule?
**A.** significantly lower

**Q.** And the “MMP-13 expression vs non-treated group” value ([4]; Cal-27 cells, 10 μM PGG, normalized to Histone H3, n=4, p<0.01)?
**A.** significantly decreased; also recorded: significantly lower

**Q.** And the “MMP-13 expression vs non-treated group” value ([4]; Cal-27 cells, 1, 2.5 or 5 μM PGG, normalized to Histone H3, n=4, p>0.05)?
**A.** not significantly different

**Q.** What about the “MMP-9 expression vs non-treated group” value ([5]; 1 or 2.5 μM PGG, normalized to Histone H3, n=4, p>0.05) of the same molecule?
**A.** not significantly different

**Q.** What about the “MMP-9 expression vs non-treated group” value ([5]; 5 or 10 μM PGG, normalized to Histone H3, n=4, p<0.05 and p<0.01) of the same molecule?
**A.** significantly decreased; also recorded: significantly lower

**Q.** What about the “production of TNF-α and IL-1β” value [6] of the same molecule?
**A.** resulted in the production of TNF-α and IL-1β

**Q.** And the “suppression of LPS-induced TNF-α production” value [7]?
**A.** ≤ 90%

**Q.** What about the “Stat3 phosphorylation (pStat3)” value ([8]; PGG at different concentrations, normalized to Histone H3, n=4, p<0.0001) of the same molecule?
**A.** significantly decreases; also recorded: decrease of Stat3 phosphorylation

**Q.** And the “Non-phosphorylated / total Stat3 vs non-treated cells” value ([8]; PGG at varying concentrations, n=4, p<0.0001)?
**A.** significantly higher; also recorded: increase in total Stat3

**Q.** What about the “MMP-9 gene expression (mRNA) vs non-treated group” value [9] of the same molecule?
**A.** not significantly different; also recorded: did not significantly decrease

**Q.** And the “MMP-13 gene expression (mRNA)” value [10]?
**A.** decreased; also recorded: reduces

**Q.** And the “interference with binding of LPS to TLR4” value [11]?
**A.** did not interfere

**Q.** And the “interaction with MyD88 adaptor protein; effect on TNF-α, IL-1β and IL-6 production” value [12]?
**A.** interacted directly with MyD88 adaptor protein thereby decreasing the production of TNF-α, IL-1β and IL-6

**Q.** What about the “MMP-14 gene expression (mRNA) vs non-treated” value [13] of the same molecule?
**A.** reduces

From US20240342203A1, “COMPOSITIONS FOR ORAL CANCER OR AN OROPHARYNGEAL CANCER” (GR BIOSYSTEMS, INC., priority 2020, published 2024)
